Results on 15 molecules are retold here after patent publication US7524853B2 (Solvay Pharmaceuticals B.V., priority 2003, dated 2009).

Assay type in all cases: cell-based
For experiment [1], the target named is T1, 17β-hydroxysteroid dehydrogenase type 1 (17β-HSD type 1) (Homo sapiens, UniProt P14061).
T1 construct: expressed in transfected cells; host or cells: MCF-7
T1 sequence (P14061 1-328): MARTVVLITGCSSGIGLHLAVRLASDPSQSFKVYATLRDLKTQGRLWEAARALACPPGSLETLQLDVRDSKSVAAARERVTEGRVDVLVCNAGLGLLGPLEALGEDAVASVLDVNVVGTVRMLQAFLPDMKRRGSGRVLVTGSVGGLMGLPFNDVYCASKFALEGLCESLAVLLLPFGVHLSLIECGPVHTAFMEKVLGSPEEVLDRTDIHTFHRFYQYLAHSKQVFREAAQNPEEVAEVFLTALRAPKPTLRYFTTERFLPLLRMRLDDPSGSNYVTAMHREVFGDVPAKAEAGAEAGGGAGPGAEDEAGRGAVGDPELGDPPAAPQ
As to the kind of experiment: Inhibition of 17β-HSD type 1 in MCF-7 cells stably expressing the isoenzyme (tritium labeled estrone conversion, HPLC). The settings on record: MCF7, MCF-7 cells expressing 17β-HSD type 1, 2 nM tritium labeled estrone; for inhibition at 1 µM: 1 μM test compound, read-out: % Inhibition HSD1 1 μM; for inhibition at 10 µM: 10 μM test compound, read-out: % Inhibition HSD1 10 μM. The procedure, abridged: (§1)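 Cells: stable MCF-7 transfectants per isoenzyme. Step one, add compound (two concentrations) plus 2 nM labelled substrate to growth medium. Step two, remove medium at a set time and stop with trichloroacetic acid. Step three, quantify conversion by HPLC with flow scintillation.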

In experiment [2] the target is T2, 17β-hydroxysteroid dehydrogenase type 2 (17β-HSD type 2) (Homo sapiens, UniProt P37059).
T2 construct: expressed in transfected cells; host or cells: MCF-7
T2 sequence (P37059 1-387): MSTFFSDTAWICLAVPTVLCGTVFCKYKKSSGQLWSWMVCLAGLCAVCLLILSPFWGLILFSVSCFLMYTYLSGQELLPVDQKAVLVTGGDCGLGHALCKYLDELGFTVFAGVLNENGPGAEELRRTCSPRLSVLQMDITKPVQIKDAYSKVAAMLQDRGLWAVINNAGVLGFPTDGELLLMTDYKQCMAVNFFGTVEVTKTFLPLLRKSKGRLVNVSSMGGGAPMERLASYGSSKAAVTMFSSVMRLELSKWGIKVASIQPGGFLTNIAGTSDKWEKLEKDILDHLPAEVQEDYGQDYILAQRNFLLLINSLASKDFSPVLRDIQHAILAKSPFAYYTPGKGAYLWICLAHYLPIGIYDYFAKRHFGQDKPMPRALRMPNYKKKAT
Nature of the experiment: Inhibition of 17β-HSD type 2 in MCF-7 cells stably expressing the isoenzyme (tritium labeled estradiol conversion, HPLC). The settings on record: MCF7, MCF-7 cells expressing 17β-HSD type 2, 2 nM tritium labeled estradiol; for inhibition at 1 µM: 1 μM test compound, read-out: % Inhibition HSD2 1 μM; for inhibition at 10 µM: 10 μM test compound, read-out: % Inhibition HSD2 10 μM. The procedure, abridged:
as §1

The target in experiment [3] is T3, 17β-hydroxysteroid dehydrogenase type 3 (17β-HSD type 3) (Homo sapiens, UniProt P37058).
T3 construct: expressed in transfected cells; host or cells: MCF-7
T3 sequence (P37058 1-310): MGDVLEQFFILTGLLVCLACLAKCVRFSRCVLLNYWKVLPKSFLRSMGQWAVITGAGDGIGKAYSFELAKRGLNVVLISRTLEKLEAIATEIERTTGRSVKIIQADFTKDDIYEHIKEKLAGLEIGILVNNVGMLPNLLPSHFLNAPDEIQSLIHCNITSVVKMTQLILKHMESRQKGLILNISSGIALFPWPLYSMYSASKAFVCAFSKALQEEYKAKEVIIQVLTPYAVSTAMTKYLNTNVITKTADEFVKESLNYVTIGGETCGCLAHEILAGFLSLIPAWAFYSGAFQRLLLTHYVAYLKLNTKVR
As to the kind of experiment: Inhibition of 17β-HSD type 3 in MCF-7 cells stably expressing the isoenzyme (tritium labeled androstenedione conversion, HPLC). The settings on record: MCF7, MCF-7 cells expressing 17β-HSD type 3, 2 nM tritium labeled androstenedione; for inhibition at 1 µM: 1 μM test compound, read-out: % Inhibition HSD3 1 μM; for inhibition at 10 µM: 10 μM test compound, read-out: % Inhibition HSD3 10 μM. The procedure, abridged: as §1

Broadly, the inhibition is the change of the read-out against control, counted positive when it falls. As to `COc1cc(-c2nc3sc4c(OC(C)=O)cccc4c3c(=O)n2Cc2ccccc2)cc(OC)c1OC` [No. 54, Acetic acid 3-benzyl-2-(3,4,5-trimethoxyphenyl)-4-oxo-3,4-dihydro-benzo[4,5]thieno[2,3-d]pyrimidin-8-yl ester], the inhibition at 1 µM was 35.4% in experiment [1], 17% in experiment [2] and 24.6% in experiment [3]. Further, the inhibition at 10 µM in experiment [1] worked out at 76.7%; in experiment [2] it was 59.8%; in experiment [3] it was 55.2%.
As for `O=c1c2c3c(sc2nc(-c2ccccc2)n1Cc1ccccc1)CCCC3` [No. 56, 3-Benzyl-2-phenyl-5,6,7,8-tetrahydro-3H-benzo[4,5]thieno[2,3-d]pyrimidin-4-one], the inhibition at 1 µM stood at 21.3% in experiment [1], 18.8% in experiment [2] and 14.7% in experiment [3]. Also, the inhibition at 10 µM was 33.2% in experiment [1], 24.5% in experiment [2] and 41.9% in experiment [3].
`O=C1CCCc2c1sc1nc(-c3ccccc3)n(Cc3ccccc3)c(=O)c21` [No. 57, 3-Benzyl-2-phenyl-6,7-dihydro-3H,5H-benzo[4,5]thieno[2,3-d]pyrimidine-4,8-dione]: the inhibition at 1 µM in experiment [1] turned out to be 23%; in experiment [2], 17.5%; in experiment [3], 19.7%. Also, the results for the inhibition at 10 µM in experiment [1], in experiment [2] and in experiment [3] were 47.3%, 28.5% and 57.3%, respectively.
Turning to `O=C1c2sc3nc(-c4ccccc4)n(Cc4ccccc4)c(=O)c3c2CCC1Br` (stereo not drawn) [No. 58, 3-Benzyl-7-bromo-2-phenyl-6,7-dihydro-3H,5H-benzo[4,5]thieno[2,3-d]pyrimidine-4,8-dione], the inhibition at 1 µM in experiment [1] is 25.5%; in experiment [2], 22.5%; in experiment [3], 16%. Besides, the figures for the inhibition at 10 µM in experiment [1], in experiment [2] and in experiment [3] were 54.9%, 33.9% and 39.4%, respectively.
Regarding `O=C1c2sc3nc(-c4ccccc4)n(Cc4ccccc4)c(=O)c3c2CCC1(Br)Br` [No. 59, 3-Benzyl-7,7-dibromo-2-phenyl-6,7-dihydro-3H,5H-benzo[4,5]thieno[2,3-d]pyrimidine-4,8-dione], the inhibition at 1 µM in experiment [1] was 24%; in experiment [2] it was 36.7%; in experiment [3] it was 17.6%. The figures for the inhibition at 10 µM in experiment [1], in experiment [2] and in experiment [3] were 20.8%, 40% and 31.7%, respectively.
In the case of `O=c1c2c(nc(-c3ccccc3)n1Cc1ccccc1)sc1c(O)cccc12` [No. 60, 3-Benzyl-8-hydroxy-2-phenyl-3H-benzo[4,5]thieno[2,3-d]pyrimidine-4-one], the inhibition at 1 µM in experiment [1] came to 16.3%; in experiment [2] it was 44.2%; in experiment [3] it was 10%. Besides, the inhibition at 10 µM was 36% in experiment [1], 76.9% in experiment [2] and 45.7% in experiment [3].
On to `O=c1c2c3c(sc2nc(-c2cccs2)n1Cc1ccccc1)CCCC3` [No. 61, 3-Benzyl-2-thiophen-2-yl-5,6,7,8-tetrahydro-3H-benzo[4,5]thieno[2,3-d]pyrimidin-4-one], for which the inhibition at 1 µM in experiment [1] was 17.7%; in experiment [2] it was 25.7%; in experiment [3] it was 20%. The inhibition at 10 µM in experiment [1] was determined as 26.2%; in experiment [2], 23.8%; in experiment [3] it was 26.4%.
For `O=C1CCCc2c1sc1nc(-c3cccs3)n(Cc3ccccc3)c(=O)c21` [No. 62, 3-Benzyl-2-thiophen-2-yl-6,7-dihydro-3H,5H-benzo[4,5]thieno[2,3-d]pyrimidine-4,8-dione], the results for the inhibition at 1 µM in experiment [1], in experiment [2] and in experiment [3] were 25.8%, 18.9% and 18%, respectively. Moreover, the inhibition at 10 µM in experiment [1] was 32%; in experiment [2], 26.4%; in experiment [3], 28%.
On to `O=C1CCCc2c1sc1nc(-c3ccc(Br)s3)n(Cc3ccccc3)c(=O)c21` [No. 64, 3-Benzyl-2-(5-bromothiophen-2-yl)-6,7-dihydro-3H,5H-benzo[4,5]thieno[2,3-d]pyrimidine-4,8-dione], for which the inhibition at 1 µM in experiment [1] was found to be 15%; in experiment [2], 15.4%; in experiment [3], 12.1%. For the same molecule, the inhibition at 10 µM in experiment [1] is 20.7%; in experiment [2], 16.6%; in experiment [3] it was 49%.
In the case of `O=C1c2sc3nc(-c4ccc(Br)s4)n(Cc4ccccc4)c(=O)c3c2CCC1Br` (stereo not drawn) [No. 65, 3-Benzyl-7-bromo-2-(5-bromothiophen-2-yl)-6,7-dihydro-3H,5H-benzo[4,5]thieno[2,3-d]pyrimidine-4,8-dione], the values for the inhibition at 1 µM in experiment [1], in experiment [2] and in experiment [3] were 1.2%, 19.2% and 5%, respectively. Besides, the values for the inhibition at 10 µM in experiment [1], in experiment [2] and in experiment [3] were 7.8%, 34.6% and 38%, respectively.
For `O=C1c2sc3nc(-c4ccc(Br)s4)n(Cc4ccccc4)c(=O)c3c2CCC1(Br)Br` [No. 66, 3-Benzyl-7,7-dibromo-2-(5-bromothiophen-2-yl)-6,7-dihydro-3H,5H-benzo[4,5]thieno[2,3-d]pyrimidine-4,8-dione], the inhibition at 1 µM stood at 7.8% in experiment [1], 27% in experiment [2] and 0.3% in experiment [3]. Also, the inhibition at 10 µM in experiment [1] amounted to 8.9%; in experiment [2], 37.6%; in experiment [3] it was 7.4%.
With `O=c1c2c(nc(-c3cccs3)n1Cc1ccccc1)sc1c(O)cccc12` [No. 67, 3-Benzyl-8-hydroxy-2-thiophen-2-yl-3H-benzo[4,5]thieno[2,3-d]pyrimidine-4-one], the inhibition at 1 µM in experiment [1] stood at 14.7%; in experiment [2], 55.2%; in experiment [3], 19.1%. Further, the results for the inhibition at 10 µM in experiment [1], in experiment [2] and in experiment [3] were 29.6%, 80.3% and 33.4%, respectively.
Take `O=c1c2c(nc(-c3ccc(Br)s3)n1Cc1ccccc1)sc1c(O)cccc12` [No. 68, 3-Benzyl-2-(5-bromothiophen-2-yl)-8-hydroxy-3H-benzo[4,5]thieno[2,3-d]pyrimidin-4-one]: the values for the inhibition at 1 µM in experiment [1], in experiment [2] and in experiment [3] were 9%, 15.5% and 7.3%, respectively. Also, the inhibition at 10 µM came out at 21.5% in experiment [1], 49% in experiment [2] and 40.7% in experiment [3].
Take `O=C(OCCn1c(-c2cccs2)nc2sc3c(c2c1=O)CCCC3)c1cccs1` [No. 69, Thiophene-2-carboxylic acid 2-(4-oxo-2-thiohen-2-yl-5,6,7,8-tetrahydro-4H-benzo[4,5]thieno[2,3-d]pyrimidin-3-yl)-ethyl ester]: the inhibition at 1 µM is 4.7% in experiment [1], 10.8% in experiment [2] and -1.1% in experiment [3]. For the same molecule, the inhibition at 10 µM was 10.5% in experiment [1], 11.9% in experiment [2] and 3.9% in experiment [3].
On to `O=C(OCCn1c(-c2cccs2)nc2sc3c(c2c1=O)CCCC3=O)c1cccs1` [No. 70, Thiophene-2-carboxylic acid 2-(4,8-dioxo-2-thiohen-2-yl-5,6,7,8-tetrahydro-4H-benzo[4,5]thieno[2,3-d]pyrimidin-3-yl)-ethyl ester], for which the inhibition at 1 µM in experiment [1] is 15.3%; in experiment [2], 13.1%; in experiment [3] it was -4.1%. Also, the inhibition at 10 µM in experiment [1] was found to be 39.4%; in experiment [2], 17.9%; in experiment [3], 44.2%.
